In PubChem BioAssay AID248 (DTP/NCI, 2004):
Values joined by “and” are separate entries in the source; they are usually repeats but may differ in a detail not shown here. Identical values can stand only once. Toxic doses and inconclusive results are not listed. Rule as the data show it: active = T/C of 150% or more; inactive = T/C below 125%.

Test system: L1210 leukemia ip in BDF1 mice, survival T/C
Assay: NCI In Vivo Anticancer Drug Screen. Data for tumor model L1210 Leukemia (intraperitoneal) in B6D2F1 (BDF1) mice
Details: endpoint: mean survival time, higher = longer survival
Procedure, shortened: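 Survival endpoint. Drug-treated group vs vehicle group, expressed as T divided by C. Tumor passaged by transplantation.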

[1] = dose: 100.0 mg/kg/injection, schedule: Q04DX002 (ip), vehicle: Klucel (hydroxypropylcellulose) (HPC)
[2] = dose: 200.0 mg/kg/injection, schedule: Q04DX002 (ip), vehicle: Klucel (hydroxypropylcellulose) (HPC)
[3] = dose: 400.0 mg/kg/injection, schedule: Q04DX002 (ip), vehicle: Klucel (hydroxypropylcellulose) (HPC)
[4] = dose: 100.0 mg/kg/injection, schedule: Q01DX001 (ip), vehicle: carboxymethylcellulose (CMC)
[5] = dose: 200.0 mg/kg/injection, schedule: Q01DX001 (ip), vehicle: carboxymethylcellulose (CMC)
[6] = dose: 400.0 mg/kg/injection, schedule: Q01DX001 (ip), vehicle: carboxymethylcellulose (CMC)
[7] = dose: 50.0 mg/kg/injection, schedule: Q01DX001 (ip), vehicle: saline
[8] = dose: 100.0 mg/kg/injection, schedule: Q01DX001 (ip), vehicle: saline
[9] = dose: 200.0 mg/kg/injection, schedule: Q01DX001 (ip), vehicle: saline
[10] = dose: 400.0 mg/kg/injection, schedule: Q01DX001 (ip), vehicle: saline
[11] = dose: 12.5 mg/kg/injection, schedule: Q01DX009 (ip), vehicle: Klucel (hydroxypropylcellulose) (HPC)
[12] = dose: 25.0 mg/kg/injection, schedule: Q01DX009 (ip), vehicle: Klucel (hydroxypropylcellulose) (HPC)
[13] = dose: 25.0 mg/kg/injection, schedule: Q04DX002 (ip), vehicle: Klucel (hydroxypropylcellulose) (HPC)
[14] = dose: 100.0 mg/kg/injection, schedule: Q04DX003 (ip), vehicle: Klucel (hydroxypropylcellulose) (HPC)
[15] = dose: 100.0 mg/kg/injection, schedule: Q04DX002 (ip), vehicle: saline
[16] = dose: 200.0 mg/kg/injection, schedule: Q04DX002 (ip), vehicle: saline
[17] = dose: 400.0 mg/kg/injection, schedule: Q04DX002 (ip), vehicle: saline

Measured: T/C

CC(C)=NNC(=O)Nc1ccc(C)c(Cl)c1
inactive: dose: 50.0 mg/kg/injection, schedule: Q01DX001 (ip), vehicle: Klucel (hydroxypropylcellulose) (HPC) 90 % of control | dose: 100.0 mg/kg/injection, schedule: Q01DX001 (ip), vehicle: Klucel (hydroxypropylcellulose) (HPC) 103 % of control and 90 % of control | dose: 100.0 mg/kg/injection, schedule: Q01DX009 (ip), vehicle: Klucel (hydroxypropylcellulose) (HPC) 102 % of control | [1] 101 % of control and 86 % of control | dose: 200.0 mg/kg/injection, schedule: Q01DX001 (ip), vehicle: Klucel (hydroxypropylcellulose) (HPC) 92 % of control | dose: 200.0 mg/kg/injection, schedule: Q01DX009 (ip), vehicle: Klucel (hydroxypropylcellulose) (HPC) 93 % of control | [2] 98 % of control and 100 % of control | dose: 400.0 mg/kg/injection, schedule: Q01DX001 (ip), vehicle: Klucel (hydroxypropylcellulose) (HPC) 87 % of control | dose: 400.0 mg/kg/injection, schedule: Q01DX009 (ip), vehicle: Klucel (hydroxypropylcellulose) (HPC) 86 % of control | [3] 95 % of control and 89 % of control

COc1ccc2c(c1O)C13CCN(C)C(C2)C12C=CC(=O)C3c1c(O)ccc(O)c12 (stereo not given)
inactive: [4] 92 % of control | [5] 97 % of control | [6] 95 % of control

NCC(=O)c1c[nH]c(=O)[nH]c1=O
inactive: dose: 25.0 mg/kg/injection, schedule: Q01DX001 (ip), vehicle: saline 107 % of control | [7] 100 % of control | [8] 97 % of control and 102 % of control | [9] 115 % of control | [10] 102 % of control

Cc1ccc(NC(=O)NC(C)C)c(C)c1
inactive: dose: 12.5 mg/kg/injection, schedule: Q04DX003 (ip), vehicle: saline with Tween-80 96 % of control | dose: 25.0 mg/kg/injection, schedule: Q04DX003 (ip), vehicle: saline with Tween-80 98 % of control | dose: 50.0 mg/kg/injection, schedule: Q04DX003 (ip), vehicle: saline with Tween-80 104 % of control | dose: 400.0 mg/kg/injection, schedule: Q04DX003 (ip), vehicle: saline with Tween-80 90 % of control

NC(CSS(=O)(=O)O)=NCCSc1ccc(Cl)cc1
inactive: dose: 6.25 mg/kg/injection, schedule: Q01DX009 (ip), vehicle: Klucel (hydroxypropylcellulose) (HPC) 95 % of control | [11] 104 % of control | dose: 12.5 mg/kg/injection, schedule: Q04DX002 (ip), vehicle: Klucel (hydroxypropylcellulose) (HPC) 100 % of control | [12] 107 % of control | [13] 100 % of control

Cc1cnc2c(=O)[nH]c(N)nc2n1
inactive: [13] 97 % of control | dose: 50.0 mg/kg/injection, schedule: Q04DX002 (ip), vehicle: Klucel (hydroxypropylcellulose) (HPC) 113 % of control | [1] 100 % of control

Cc1c(Cl)cccc1N=C=S
inactive: dose: 75.0 mg/kg/injection, schedule: Q01DX001 (ip), vehicle: saline 95 % of control | dose: 150.0 mg/kg/injection, schedule: Q01DX001 (ip), vehicle: saline 97 % of control | dose: 300.0 mg/kg/injection, schedule: Q01DX001 (ip), vehicle: saline 100 % of control

CCCN(C)N=Nc1ccccc1C(=O)O
inactive: [11] 106 % of control and 113 % of control and 124 % of control | dose: 12.5 mg/kg/injection, schedule: Q04DX003 (ip), vehicle: Klucel (hydroxypropylcellulose) (HPC) 105 % of control | [12] 114 % of control and 116 % of control | dose: 25.0 mg/kg/injection, schedule: Q04DX003 (ip), vehicle: Klucel (hydroxypropylcellulose) (HPC) 118 % of control | dose: 50.0 mg/kg/injection, schedule: Q04DX003 (ip), vehicle: Klucel (hydroxypropylcellulose) (HPC) 105 % of control | dose: 75.0 mg/kg/injection, schedule: Q01DX009 (ip), vehicle: Klucel (hydroxypropylcellulose) (HPC) 87 % of control | [14] 113 % of control

NP(=S)(Oc1ccc(Cl)cc1)Oc1ccc(Cl)cc1
inactive: dose: 6.25 mg/kg/injection, schedule: Q01DX009 (ip), vehicle: gum acacia 103 % of control | dose: 12.5 mg/kg/injection, schedule: Q01DX009 (ip), vehicle: gum acacia 110 % of control | dose: 12.5 mg/kg/injection, schedule: Q04DX002 (ip), vehicle: gum acacia 87 % of control | dose: 25.0 mg/kg/injection, schedule: Q01DX009 (ip), vehicle: gum acacia 100 % of control | dose: 25.0 mg/kg/injection, schedule: Q04DX002 (ip), vehicle: gum acacia 87 % of control | [15] 93 % of control | [16] 101 % of control | [17] 96 % of control

OCC[N+]12CN3CN(CN(C3)C1)C2
inactive: [15] 113 % of control | [16] 106 % of control | [17] 106 % of control

NCC(O)COc1ccccc1N (stereo not given)
inactive: dose: 3.12 mg/kg/injection, schedule: Q01DX009 (ip), vehicle: saline 97 % of control | dose: 6.25 mg/kg/injection, schedule: Q01DX009 (ip), vehicle: saline 106 % of control | dose: 12.5 mg/kg/injection, schedule: Q01DX009 (ip), vehicle: saline 100 % of control | dose: 12.5 mg/kg/injection, schedule: Q04DX003 (ip), vehicle: saline 93 % of control

COc1cccc(NC(=S)NC(Cc2ccccc2)c2ccccc2)c1 (stereo not given)
inactive: [1] 94 % of control | [2] 101 % of control | [3] 97 % of control

O=C(O)CCCCCCCCCCCCO
inactive: [14] 96 % of control | dose: 200.0 mg/kg/injection, schedule: Q04DX003 (ip), vehicle: Klucel (hydroxypropylcellulose) (HPC) 91 % of control | dose: 400.0 mg/kg/injection, schedule: Q04DX003 (ip), vehicle: Klucel (hydroxypropylcellulose) (HPC) 96 % of control

CNC(=O)Oc1ccc(C2CCCCC2)cc1
inactive: [4] 99 % of control | dose: 100.0 mg/kg/injection, schedule: Q01DX009 (ip), vehicle: carboxymethylcellulose (CMC) 93 % of control and 103 % of control | [1] 97 % of control | dose: 100.0 mg/kg/injection, schedule: Q04DX002 (ip), vehicle: carboxymethylcellulose (CMC) 95 % of control and 101 % of control | dose: 100.0 mg/kg/injection, schedule: Q04DX003 (ip), vehicle: carboxymethylcellulose (CMC) 94 % of control | [5] 90 % of control | dose: 200.0 mg/kg/injection, schedule: Q01DX009 (ip), vehicle: carboxymethylcellulose (CMC) 93 % of control and 95 % of control | [2] 97 % of control | dose: 200.0 mg/kg/injection, schedule: Q04DX002 (ip), vehicle: carboxymethylcellulose (CMC) 101 % of control and 108 % of control | dose: 200.0 mg/kg/injection, schedule: Q04DX003 (ip), vehicle: carboxymethylcellulose (CMC) 94 % of control | [6] 92 % of control | dose: 400.0 mg/kg/injection, schedule: Q01DX009 (ip), vehicle: carboxymethylcellulose (CMC) 98 % of control and 100 % of control | [3] 100 % of control | dose: 400.0 mg/kg/injection, schedule: Q04DX002 (ip), vehicle: carboxymethylcellulose (CMC) 95 % of control and 101 % of control | dose: 400.0 mg/kg/injection, schedule: Q04DX003 (ip), vehicle: carboxymethylcellulose (CMC) 100 % of control

Cc1cn(C2SC(CO)C(O)C2O)c(=O)[nH]c1=O (stereo not given)
inactive: [7] 97 % of control | [8] 105 % of control | [9] 100 % of control | [10] 100 % of control

N=C(N)SCc1c2ccccc2cc2ccccc12
inactive: dose: 88.0 mg/kg/injection, schedule: Q01DX009 (ip), vehicle: saline sonified 102 % of control | dose: 100.0 mg/kg/injection, schedule: Q01DX009 (ip), vehicle: saline 102 % of control | dose: 100.0 mg/kg/injection, schedule: Q04DX003 (ip), vehicle: saline 104 % of control | dose: 132.0 mg/kg/injection, schedule: Q01DX009 (ip), vehicle: saline sonified 105 % of control | dose: 200.0 mg/kg/injection, schedule: Q01DX009 (ip), vehicle: saline sonified 114 % of control | dose: 200.0 mg/kg/injection, schedule: Q04DX003 (ip), vehicle: saline 102 % of control | dose: 400.0 mg/kg/injection, schedule: Q04DX003 (ip), vehicle: saline 112 % of control

C#CCC#CCCCCCC
inactive: dose: 50.0 mg/kg/injection, schedule: Q01DX009 (ip), vehicle: saline with Tween-80 95 % of control | dose: 100.0 mg/kg/injection, schedule: Q01DX009 (ip), vehicle: saline with Tween-80 95 % of control | dose: 200.0 mg/kg/injection, schedule: Q01DX009 (ip), vehicle: saline with Tween-80 95 % of control
